In patent publication US10730851B2, “Polymorph of triaryldimethylpiperazine dihydrochloride and preparation method and application thereof” (priority 2016, dated 2020):
Structures can show the parent of a compound that is named as a salt. Where two headings read alike, the source gives them in different places.

Columns and labels:
SPF-grade SD rats = experiment: Forced swimming test; type: in vivo; conditions: for antidepressant effect in forced swimming test (in words): rats, dihydrochloride; for Behavior duration, Static / Behavior duration, Swimming / Behavior duration, Wall climbing / Number of behaviors, Static / Number of behaviors, Swimming / Number of behaviors, Wall climbing: x ± SEM
Protocol: Forced swimming test is used to test the antidepressant effects of polymorph forms P, F, O, B and J.
the swimming test equipment is a transparent glass round cylinder with a height of 46 cm and an inner diameter of 20 cm, the test water temperature is 23° C.˜25° C., the test water depth is 30 cm, and each cylinder is used only once.
(§1) 300 mg of a polymorph form P is weighed with an electronic balance, and the polymorph form P is dissolved with 0.9% normal saline, and finally the volume is fixed to 100 mL with 0.9% normal saline, at this time, the concentration of dihydrochloride in the experimental reagent is 3 mg/mL for later use.
as §1, with “600” for “300”, “6” for “3”
400 mg of desipramine (DMI) is weighed with an electronic balance, DMI is dissolved with 0.9% normal saline, and then the volume is fixed to 100 mL with 0.9% normal saline for later use.
Forty SPF-grade SD rats are prepared and randomly divided into 4 groups, namely vehicle control group, positive control group, experimental group 1 and experimental group 2, with 10 rats in each group. The day before the test, the rats were placed in water for 15 min to pre-swim for 15 min in advance to adapt to the swimming test environment, then taken out and dried, placed in the cage under an infrared lamp for 15 min and then placed in the original cage. After 24 h, a formal swimming test is conducted, that is, the rats are put into water again after 24 h, and the rats are continuously observed for 5 min. The swimming process are needed to be photographed. The drug is administered during two swimming sessions.
The positive control group containing DMI is administered three times, at 23.5 h, 5 h and 1 h before the formal swimming test respectively. Vehicle control group, experimental group 1 and experimental group 2 are each administered only once and subcutaneously within 1 h.
The behaviors of the rats are scored by the scorer every 5 seconds after recording the experiment.
1) Static—when the rat floats on the water surface without struggling and moves only to keep its head above the water surface, the rat is evaluated as static;
2) Swimming—if the rats have obvious swimming behaviors, not only to keep their heads above the water surface, or to travel around in a round cylinder, they are evaluated as swimming;
3) Wall climbing—the rats' front paws have obvious behavior of entering and leaving the water surface, usually, rats are evaluated as wall climbing in front of the round cylinder wall.
All behavioral are scored by a single person. To avoid bias of observation, the scorer only observed and scored without knowing the administration situations. Then multiple test fragments are randomly selected, and the scorer will score the second round to determine the accuracy of observation. The test video is scored again by the second scorer to determine the accuracy between scorers. The second scorer are also required to observe without knowing the drug administration. Finally, in order to determine the effectiveness of the method, the first scorer scored again and recorded the duration of various behaviors with a stopwatch.
SPSSwin11.0 software is used for variance analysis. One-way variance analysis is used for homogeneity of variance, and Dunnett test is used for heterogeneity of variance.

[1] = Dynamic solubility test in water, SGF, FeSSIF, FaSSIF; type: physicochemical; conditions: for pH in clear solution: dihydrochloride
Protocol: The dynamic solubility of a free base, polymorph forms B, P, F, J and O in water or a biological medium such as Stimulated Gastric Fluid (SGF), Fed State Simulated Intestinal Fluid (FeSSIF) or Fasted State Simulated Intestinal Fluid (FaSSIF) is determined.
0.2 g sodium chloride and 0.1 g Triton X-100 is weighed and placed into a 100 mL volumetric flask. Purified water is added to dissolve. A stir is performed until the solid is completely dissolved. About 135 μL concentrated hydrochloric acid solution (37%, […]) is added, then the pH is adjusted to 1.8 with […] hydrochloric acid or 1 mmoL/L sodium hydroxide. Finally, the volume is fixed with purified water to obtain Stimulated Gastric Fluid (SGF) for later use.
Each of 0.41 mL glacial acetic acid, 0.20 g sodium hydroxide and 0.59 g sodium chloride is weighed and placed to a 50 mL volumetric flask. About 48 mL purified water is added to dissolve, the pH is adjusted to 5.0 with 1 mmoL/L hydrochloric acid or 1 mmoL/L sodium hydroxide, and the volume is fixed with purified water. Then 0.56 g of Simulated Intestinal Fluid powder (SIF powder for short, which is composed of […] with a molar ratio of 4:1) is added, stirred and ultrasonically dissolved to obtain Fed State Simulated Intestinal Fluid (FeSSIF) for later use.
Each of 0.17 g of anhydrous sodium dihydrogen phosphate (NaH2PO4), 0.021 g of sodium hydroxide and 0.31 g of sodium chloride is weighed and placed into a 50 mL volumetric flask. About 48 mL of purified water is added to dissolve, the pH is adjusted to 6.5 with 1 mmoL/L hydrochloric acid or 1 mmoL/L sodium hydroxide, and the volume is fixed with purified water. 0.11 g of SIF powder is added, stirred and ultrasonically dissolved to obtain Fasted State Simulated Intestinal Fluid (FaSSIF) for later use.
Each 30 mg of the free base, and polymorph forms B, P, F, J and O are weighed. 3 mL of purified water, Stimulated Gastric Fluid (SGF), Fed State Simulated Intestinal Fluid (FeSSIF) or Fasted State Simulated Intestinal Fluid (FaSSIF)) is added and oscillated at room temperature. 0.6 mL of suspension is taken each time at a set time point, filtered and separated with a 0.45 μm nylon filter membrane, then XRPD characterization is performed on the solid sample, and the concentration in the clear solution is measured by HPLC.

[2] = Dynamic moisture adsorption; type: physicochemical
[3] = Experiment group 1, 30 mg/kg Sc once
[4] = Experiment group 2, 60 mg/kg Sc once

Compound | antidepressant effect in forced swimming test (in words) (SPF-grade SD rats) | solubility compared with the free base [1] | pH in clear solution ([1]; FaSSIF, Time 1) | pH in clear solution ([1]; FaSSIF, Time 2) | pH in clear solution ([1]; FaSSIF, Time 4) | pH in clear solution ([1]; FaSSIF, Time 24) | pH in clear solution ([1]; FeSSIF, Time 1) | pH in clear solution ([1]; FeSSIF, Time 2) | pH in clear solution ([1]; FeSSIF, Time 4) | pH in clear solution ([1]; FeSSIF, Time 24) | pH in clear solution ([1]; SGF, Time 1) | pH in clear solution ([1]; SGF, Time 2) | pH in clear solution ([1]; SGF, Time 4) | pH in clear solution ([1]; SGF, Time 24) | pH in clear solution ([1]; Water, Time 1) | pH in clear solution ([1]; Water, Time 2) | pH in clear solution ([1]; Water, Time 4) | pH in clear solution ([1]; Water, Time 24) | Crystal form of insoluble solid sample ([1]; pH 1.8) | solubility compared with the free base ([1]; pH 1.8) | further results
CC1CCN(C(=O)c2ccc([C@H](c3cccc(O)c3)N3C[C@@H](C)N(Cc4cccc(F)c4)C[C@@H]3C)cc2)CC1 [Polymorph form F, (4-((R)-((2S,5R)-4-(3-fluorobenzyl)-(2,5-dimethylpiperazine-1-yl)(3-hydroxyphenyl)methyl)phenyl)(4-methylpiperidine-1-yl)methanone dihydrochloride] | effectively reduce the static times and duration of forced swimming in rats | significantly improved | 3.5 | 4.6 | 4.2 | 4.5 | 4.8 | 4.9 | 4.9 | 4.9 | 1.6 | 1.6 | 1.6 | 1.4 | 1.8 | 1.9 | 1.8 | 1.5 | invariability | close to or slightly improved | Crystal form of insoluble solid sample ([1]; pH 5): invariability; Crystal form of insoluble solid sample ([1]; pH 6.5): invariability
CC1CCN(C(=O)c2ccc([C@H](c3cccc(O)c3)N3C[C@@H](C)N(Cc4cccc(F)c4)C[C@@H]3C)cc2)CC1 [Polymorph form J, (4-((R)-((2S,5R)-4-(3-fluorobenzyl)-(2,5-dimethylpiperazine-1-yl)(3-hydroxyphenyl)methyl)phenyl)(4-methylpiperidine-1-yl)methanone dihydrochloride] | effectively reduce the static times and duration of forced swimming in rats | significantly improved | 2.8 | 3.0 | 2.8 | 2.6 | 4.8 | 5.0 | 4.9 | 4.7 | 1.7 | 1.5 | 1.5 | 1.6 | 1.8 | 1.7 | 1.7 | 1.4 | – | close to or slightly improved | Crystal form of insoluble solid sample [1]: amorphism
CC1CCN(C(=O)c2ccc([C@H](c3cccc(O)c3)N3C[C@@H](C)N(Cc4cccc(F)c4)C[C@@H]3C)cc2)CC1 [Polymorph form P, (4-((R)-((2S,5R)-4-(3-fluorobenzyl)-(2,5-dimethylpiperazine-1-yl)(3-hydroxyphenyl)methyl)phenyl)(4-methylpiperidine-1-yl)methanone dihydrochloride] | better antidepressant effect | significantly improved | 3.0 | 2.7 | 2.2 | 2.6 | 5.0 | 4.9 | 5.0 | 4.6 | 1.6 | 1.7 | 1.6 | 1.5 | 1.9 | 1.9 | 1.9 | 1.6 | invariability | close to or slightly improved | Behavior duration, Static (SPF-grade SD rats; [3]): 45.5 ± 7.5 s; Behavior duration, Swimming (SPF-grade SD rats; [3]): 142.5 ± 21.5 s; Behavior duration, Wall climbing (SPF-grade SD rats; [3]): 114.0 ± 19.0 s; Number of behaviors, Static (SPF-grade SD rats; [3]): 9.1 ± 1.5 times; Number of behaviors, Swimming (SPF-grade SD rats; [3]): 28.5 ± 4.3 times; Number of behaviors, Wall climbing (SPF-grade SD rats; [3]): 22.8 ± 3.8 times; Behavior duration, Static (SPF-grade SD rats; [4]): 88.5 ± 8.0 s; Behavior duration, Swimming (SPF-grade SD rats; [4]): 122.0 ± 14.0 s; Behavior duration, Wall climbing (SPF-grade SD rats; [4]): 91.0 ± 5.5 s; Number of behaviors, Static (SPF-grade SD rats; [4]): 17.7 ± 1.6 times; Number of behaviors, Swimming (SPF-grade SD rats; [4]): 24.4 ± 2.8 times; Number of behaviors, Wall climbing (SPF-grade SD rats; [4]): 18.2 ± 1.1 times; Solubility ([1]; pH 1.8, simulated gastric fluid, thermodynamic from solid, Solubility): 3400 µg/mL; Crystal form of insoluble solid sample ([1]; pH 5): invariability; Solubility ([1]; pH 5, fessif, thermodynamic from solid, Solubility): 430 µg/mL; Crystal form of insoluble solid sample ([1]; pH 6.5): invariability
CC1CCN(C(=O)c2ccc([C@H](c3cccc(O)c3)N3C[C@@H](C)N(Cc4cccc(F)c4)C[C@@H]3C)cc2)CC1 [Polymorph form O, (4-((R)-((2S,5R)-4-(3-fluorobenzyl)-(2,5-dimethylpiperazine-1-yl)(3-hydroxyphenyl)methyl)phenyl)(4-methylpiperidine-1-yl)methanone dihydrochloride] | effectively reduce the static times and duration of forced swimming in rats | significantly improved | 2.2 | 2.0 | 2.4 | 2.2 | 5.0 | 4.8 | 5.0 | 5.2 | 1.5 | 1.6 | 1.6 | 1.7 | 1.9 | 1.8 | 1.9 | 1.4 | – | close to or slightly improved | Crystal form of insoluble solid sample [1]: invariability; Solubility [1]: 6200 µg/mL; Crystal form change under dynamic moisture adsorption [2]: change into amorphous
